How the values were obtained:
Type in all cases: in vivo, mouse
[1] = Body, spleen, liver and fat pad weight, high fat fed mice, 6 week study; conditions: compared to saline-treated controls
Experimental: (§1) Male C57BL/6 mice (n=8) receiving a high fat diet (60% kcal fat) were evaluated over the course of 6 weeks for the effects of treatment with the antisense oligonucleotide, ISIS 147764. Control animals received saline treatment (50 mg/kg). A subset of animals received a daily oral dose (20 mg/kg) atorvastatin calcium (Lipitor®, Pfizer Inc.). All mice, except atorvastatin-treated animals, were dosed intraperitoneally every three days (twice a week), after fasting overnight, with 5, 25, 50 mg/kg ISIS 147764 (SEQ ID No: 109) or saline (50 mg/kg) for six weeks. Serum cholesterol and lipoproteins were analyzed at 0, 2 and 6 week interim timepoints. At study termination, animals were sacrificed 48 hours after the final injections and evaluated for levels of target mRNA levels in liver, cholesterol, lipoprotein, triglyceride, liver enzyme (AST and ALT) and serum glucose levels as well as body, liver, spleen and fat pad weights.
Male C57BL/6 mice (n=8) receiving a high fat diet (60% kcal fat) were evaluated over the course of 6 weeks for the effects of ISIS 147764 on body, spleen, liver and fat pad weight. Control animals received saline treatment (50 mg/kg). Mice were dosed intraperitoneally every three days (twice a week), after fasting overnight, with 5, 25, 50 mg/kg ISIS 147764 (SEQ ID No: 109) or saline (50 mg/kg) for six weeks.
At study termination, animals were sacrificed 48 hours after the final injections and body, spleen, liver and fat pad weights were measured. Values are expressed as percent change in body weight or ogan weight compared to the saline-treated control animals. Data from mice treated with atorvastatin at a daily dose of 20 mg/kg are also shown in the table Negative values indicated a decrease in weight.

[2] = Liver enzyme levels, lean vs high fat fed C57BL/6 mice; conditions: for Liver Enzymes ALT Percent Change / Liver Enzymes AST Percent Change: 50 mg/kg i.p. every three days, six weeks
Experimental: (§2) Male C57BL/6 mice were divided into two matched groups; (1) wild-type control animals (lean animals) and (2) animals receiving a high fat diet (60% kcal fat). Control animals received saline treatment and were maintained on a normal rodent diet. After overnight fasting, mice from each group were dosed intraperitoneally every three days with saline or 50 mg/kg ISIS 147764 (SEQ ID No: 109) for six weeks. At study termination and forty eight hours after the final injections, animals were sacrificed and evaluated for target mRNA levels in liver, cholesterol and triglyceride levels, liver enzyme levels and serum glucose levels.

apolipoprotein B mRNA [3] = experiment: Target mRNA levels in liver, lean vs high fat fed C57BL/6 mice; conditions: 50 mg/kg i.p. every three days, six weeks
Experimental: as §2

[4] = Cholesterol, lipoprotein, triglyceride and serum glucose levels, lean vs high fat fed C57BL/6 mice; conditions: 50 mg/kg i.p. every three days, six weeks
Experimental: as §2

[5] = Serum AST and ALT levels, high fat fed mice, 6 week study; conditions: for ALT levels / AST levels: 6 weeks; for ALT levels: saline control 25 IU/L; for AST levels: saline control 65 IU/L
Experimental: as §1
Male C57BL/6 mice (n=8) receiving a high fat diet (60% kcal fat) were evaluated over the course of 6 weeks for the effects of ISIS 147764 on liver enzyme (AST and ALT) levels. Control animals received saline treatment (50 mg/kg). Mice were dosed intraperitoneally every three days (twice a week), after fasting overnight, with 5, 25, 50 mg/kg ISIS 147764 (SEQ ID No: 109) or saline (50 mg/kg) for six weeks.
Values in the table are expressed as IU/L. Increased levels of the liver enzymes ALT and AST indicate toxicity and liver damage.

apolipoprotein B mRNA [6] = experiment: Target mRNA levels in liver, high fat fed mice, 6 week timecourse study; conditions: high fat fed C57BL/6 mice, six weeks
Experimental: as §1
Male C57BL/6 mice (n=8) receiving a high fat diet (60% kcal fat) were evaluated over the course of 6 weeks for the effects of ISIS 147764 on mRNA expression. Control animals received saline treatment (50 mg/kg). Mice were dosed intraperitoneally every three days (twice a week), after fasting overnight, with 5, 25, 50 mg/kg ISIS 147764 (SEQ ID No: 109) or saline (50 mg/kg) for six weeks. At study termination, animals were sacrificed 48 hours after the final injections and evaluated for levels of target mRNA levels in liver.

[7] = Serum glucose levels, high fat fed mice, 6 week study; conditions: study termination, saline control 300 mg/dL
Experimental: as §1
Male C57BL/6 mice (n=8) receiving a high fat diet (60% kcal fat) were evaluated over the course of 6 weeks for the effects of ISIS 147764 on serum glucose levels. Control animals received saline treatment (50 mg/kg). Mice were dosed intraperitoneally every three days (twice a week), after fasting overnight, with 5, 25, 50 mg/kg ISIS 147764 (SEQ ID No: 109) or saline (50 mg/kg) for six weeks.
At study termination, animals were sacrificed 48 hours after the final injections and evaluated for serum glucose levels. […] Mice treated with atorvastatin at a daily oral dose of 20 mg/kg had serum glucose levels of 215 mg/dL.

Sequence: GTCCCTGAAGATGTCAATGC (2'-MOE gapmer with phosphorothioates, pattern not given here) [ISIS 147764, 2′-MOE gapmer phosphorothioate oligonucleotide to mouse apolipoprotein B]
- Fat pad weight Percent Change ([1]; 5 mg/kg): 10%
- Liver weight Percent Change ([1]; 5 mg/kg): 18%
- Spleen weight Percent Change ([1]; 5 mg/kg): 10%
- Total Body Wt. Percent Change ([1]; 5 mg/kg): 5%
- Fat pad weight Percent Change ([1]; 25 mg/kg): 6%
- Liver weight Percent Change ([1]; 25 mg/kg): 70%
- Spleen weight Percent Change ([1]; 25 mg/kg): 10%
- Total Body Wt. Percent Change ([1]; 25 mg/kg): 5%
- Fat pad weight Percent Change ([1]; 50 mg/kg): −47%
- Liver weight Percent Change ([1]; 50 mg/kg): 80%
- Spleen weight Percent Change ([1]; 50 mg/kg): 46%
- Total Body Wt. Percent Change ([1]; 50 mg/kg): −4%
- Liver Enzymes ALT Percent Change ([2]; high fat fed C57BL/6 mice): Slight
- Liver Enzymes AST Percent Change ([2]; high fat fed C57BL/6 mice): Slight
- Liver Enzymes ALT Percent Change ([2]; lean C57BL/6 mice): No
- Liver Enzymes AST Percent Change ([2]; lean C57BL/6 mice): Slight
- changes in liver enzyme levels ([2]; lean and high fat fed C57BL/6 mice, 50 mg/kg): No significant changes
- mRNA Percent Change (apolipoprotein B mRNA [3]; high fat fed (60% kcal fat) C57BL/6 mice): −87%
- mRNA Percent Change (apolipoprotein B mRNA [3]; lean C57BL/6 mice): −73%
- CHOL Percent Change ([4]; high fat fed C57BL/6 mice): −67%
- GLUC Percent Change ([4]; high fat fed C57BL/6 mice): −28%
- Lipoproteins HDL Percent Change ([4]; high fat fed C57BL/6 mice): −65%
- Lipoproteins LDL Percent Change ([4]; high fat fed C57BL/6 mice): −87%
- Lipoproteins VLDL Percent Change ([4]; high fat fed C57BL/6 mice): No
- TRIG Percent Change ([4]; high fat fed C57BL/6 mice): No
- CHOL Percent Change ([4]; lean C57BL/6 mice): −63%
- GLUC Percent Change ([4]; lean C57BL/6 mice): No
- Lipoproteins HDL Percent Change ([4]; lean C57BL/6 mice): −44%
- Lipoproteins LDL Percent Change ([4]; lean C57BL/6 mice): −64%
- Lipoproteins VLDL Percent Change ([4]; lean C57BL/6 mice): No
- TRIG Percent Change ([4]; lean C57BL/6 mice): −34%
- ALT levels ([5]; 5 mg/kg): 50 IU/L
- AST levels ([5]; 5 mg/kg): 105 IU/L
- ALT levels ([5]; 25 mg/kg): 70 IU/L
- AST levels ([5]; 25 mg/kg): 70 IU/L
- ALT levels ([5]; 50 mg/kg): 100 IU/L
- AST levels ([5]; 50 mg/kg): 80 IU/L
- change in AST levels over the duration of the study compared to saline controls ([5]; 5, 25 and 50 mg/kg): no significant change
- reduction of target mRNA levels in liver (apolipoprotein B mRNA [6]; 5 mg/kg i.p. every three days): 15%
- reduction of target mRNA levels in liver (apolipoprotein B mRNA [6]; 25 mg/kg i.p. every three days): 75%
- reduction of target mRNA levels in liver (apolipoprotein B mRNA [6]; 50 mg/kg i.p. every three days): 88%
- serum glucose levels ([7]; 5 mg/kg): 225 mg/dL
- serum glucose levels ([7]; 25 mg/kg): 190 mg/dL
- serum glucose levels ([7]; 50 mg/kg): 180 mg/dL
